Test results taken from US7851444B2 (priority 2002, dated 2010).

Experiments:
[1] = biological target: T1, human noradrenaline transporter (hNET) (Homo sapiens, UniProt P23975); test: cell-based
T1 construct: expressed in transfected cells; host or cells: COS-7 cells (ATCC), transient transfection with metafectene

[2] = biological target: T1, human noradrenaline transporter (hNET); test: biochemical; format: binding

T1 sequence (P23975 whole entry): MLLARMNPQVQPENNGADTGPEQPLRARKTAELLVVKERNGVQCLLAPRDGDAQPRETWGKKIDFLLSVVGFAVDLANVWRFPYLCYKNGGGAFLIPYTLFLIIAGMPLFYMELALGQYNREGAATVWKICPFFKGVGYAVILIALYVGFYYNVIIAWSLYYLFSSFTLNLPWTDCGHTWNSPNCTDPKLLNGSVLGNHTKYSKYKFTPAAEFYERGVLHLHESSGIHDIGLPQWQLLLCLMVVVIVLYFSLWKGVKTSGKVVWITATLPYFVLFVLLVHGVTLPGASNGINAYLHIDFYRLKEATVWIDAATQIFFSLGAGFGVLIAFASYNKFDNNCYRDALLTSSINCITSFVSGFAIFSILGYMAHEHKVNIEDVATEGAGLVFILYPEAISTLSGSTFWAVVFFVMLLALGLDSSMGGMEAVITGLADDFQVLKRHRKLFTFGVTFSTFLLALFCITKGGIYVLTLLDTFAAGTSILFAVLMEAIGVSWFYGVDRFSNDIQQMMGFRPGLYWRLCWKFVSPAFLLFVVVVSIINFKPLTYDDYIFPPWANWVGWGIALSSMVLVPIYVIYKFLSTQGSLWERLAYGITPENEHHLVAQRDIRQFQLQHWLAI

| Structure (SMILES) | IC50 [1] | IC50 [2] |
| --- | --- | --- |
| COc1ccc(C[C@@H]2NC(=O)CNC(=O)[C@@H]3CSSC[C@H](NC(=O)[C@H](CC(C)C)NC(=O)[C@H](CCCCN)NC2=O)C(=O)N[C@@H](Cc2c[nH]cn2)C(=O)N2C[C@H](O)C[C@H]2C(=O)N[C@H](C(N)=O)CSSC[C@H](NC(=O)[C@@H](NC(=O)CNC(=O)[C@@H]2CCC(=O)N2)C(C)C)C(=O)N3)cc1 [SEQ ID NO. 6, Xaa1 Gly Val Cys Cys Gly Xaa4 Lys Leu Cys His Xaa3 Cys] | 0.214 µM | 1.15 µM |
| CC(C)C[C@@H]1NC(=O)[C@H](CCCCN)NC(=O)[C@H](Cc2ccc(O)cc2)NC(=O)CNC(=O)[C@@H]2CSSC[C@H](NC1=O)C(=O)N[C@@H](Cc1c[nH]cn1)C(=O)N1C[C@H](O)C[C@H]1C(=O)N[C@H](C(=O)O)CSSC[C@H](NC(=O)[C@@H](NC(=O)CNC(=O)[C@@H]1CCC(=O)N1)C(C)C)C(=O)N2 [SEQ ID NO. 9, Xaa1 Gly Val Cys Cys Gly Tyr Lys Leu Cys His Xaa3 Cys —OH] |  | 8.32 µM |
| CC(C)C[C@@H]1NC(=O)[C@H](CCCCN)NC(=O)[C@H](Cc2ccc(O)cc2)NC(=O)CNC(=O)[C@@H]2CSSC[C@H](NC1=O)C(=O)N[C@@H](Cc1c[nH]cn1)C(=O)N1C[C@H](O)C[C@H]1C(=O)N[C@@H](C(N)=O)CSSC[C@H](NC(=O)[C@@H](NC(=O)CNC(=O)[C@@H]1CCC(=O)N1)C(C)C)C(=O)N2 [SEQ ID NO. 5, Xaa1 Gly Val Cys Cys Gly Tyr Lys Leu Cys His Xaa3 Xaa5] | 0.575 µM | 4.17 µM |
